Measurements as given in PubChem BioAssay (NCI).
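How tested: cells in 96-well plates exposed to compound for 48 hours at five concentrations. GI50 is the concentration that inhibits growth by half. The concentration for full growth arrest is given as TGI.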

Tests used:
Experiment in all cases: DTP human tumour cell line panel, 48 h; in the data active means GI50 below about 0.43 µM; inactive means the rest
[1] = test system: PC-3 prostate
[2] = test system: SW-620 colon
[3] = test system: HS 578T breast
[4] = test system: K-562 leukemia
[5] = test system: HCT-15 colon
[6] = test system: HCC-2998 colon
[7] = test system: A498 renal
[8] = test system: COLO 205 colon
[9] = test system: OVCAR-5 ovarian
[10] = test system: HCT-116 colon
[11] = test system: BT-549 breast
[12] = test system: DU-145 prostate
[13] = test system: UACC-257 melanoma
[14] = test system: MALME-3M melanoma
[15] = test system: NCI/ADR-RES ovarian
[16] = test system: SF-268 CNS
[17] = test system: OVCAR-8 ovarian
[18] = test system: EKVX NSCLC
[19] = test system: HOP-92 NSCLC
[20] = test system: OVCAR-3 ovarian
[21] = test system: A549 NSCLC
[22] = test system: CAKI-1 renal
[23] = test system: MDA-N
[24] = test system: SR leukemia
[25] = test system: SK-OV-3 ovarian
[26] = test system: MCF7 breast
[27] = test system: U251 CNS
[28] = test system: LOX IMVI melanoma
[29] = test system: SN12C renal
[30] = test system: IGROV1 ovarian
[31] = test system: SF-295 CNS
[32] = test system: UO-31 renal
[33] = test system: 786-0 renal
[34] = test system: SK-MEL-5 melanoma
[35] = test system: SNB-19 CNS
[36] = test system: SK-MEL-2 melanoma
[37] = test system: HT29 colon
[38] = test system: UACC-62 melanoma
[39] = test system: T-47D breast
[40] = test system: SF-539 CNS
[41] = test system: HL-60(TB) leukemia
[42] = test system: MOLT-4 leukemia
[43] = test system: CCRF-CEM leukemia
[44] = test system: MDA-MB-435
[45] = test system: TK-10 renal
[46] = test system: SNB-75 CNS
[47] = test system: KM12 colon
[48] = test system: M14 melanoma
[49] = test system: RPMI-8226 leukemia
[50] = test system: MDA-MB-231 breast
[51] = test system: NCI-H23 lung
[52] = test system: NCI-H226 lung
[53] = test system: RXF 393 renal
[54] = test system: NCI-H522 lung
[55] = test system: ACHN renal
[56] = test system: HOP-62 NSCLC
[57] = test system: SK-MEL-28 melanoma
[58] = test system: NCI-H460 lung
[59] = test system: OVCAR-4 ovarian

CNC(=S)/C(C#N)=C(\N)N1CCN(C)CC1
> 100 µM: TGI [1] | TGI [2] | TGI [3] | TGI [4] | TGI [5] | TGI [6] | TGI [7] | TGI [8] | TGI [9] | TGI [10] | TGI [11] | TGI [12] | TGI [13] | TGI [14] | TGI [15] | TGI [16] | TGI [17] | TGI [18] | TGI [19] | TGI [20] | TGI [21] | TGI [22] | TGI [23] | TGI [24] | TGI [25] | TGI [26] | TGI [27] | TGI [28] | TGI [29] | TGI [30] | TGI [31] | TGI [32] | TGI [33] | TGI [34] | TGI [35] | TGI [36] | TGI [37] | TGI [38] | TGI [39] | TGI [40] | TGI [41] | TGI [42] | TGI [43] | TGI [44] | TGI [45] | TGI [46] | TGI [47] | TGI [48] | TGI [49] | TGI [50] | TGI [51] | TGI [52] | TGI [53] | TGI [54] | TGI [55] | TGI [56]

CCCCOC(=O)CC(CC(=O)OCCCC)(OC(C)=O)C(=O)OCCCC
> 179 µM: TGI [41]
56.4 µM: TGI [46]
198 µM: TGI [52]
> 50.7 µM: TGI [24]
98.2 µM: TGI [32]
inactive: GI50 [1] 86.5 µM | GI50 [4] 53.2 µM | GI50 [10] 70.9 µM | GI50 [15] 74.2 µM | GI50 [24] 32.2 µM | GI50 [27] 92.6 µM | GI50 [28] 40.5 µM | GI50 [59] 69.1 µM | GI50 [31] 54.3 µM | GI50 [34] 28.4 µM | GI50 [37] 68.8 µM | GI50 [39] 26.4 µM | GI50 [41] 49.1 µM | GI50 [42] 24.8 µM | GI50 [49] 29.2 µM | GI50 [52] 55.6 µM | GI50 [53] 96 µM
> 124 µM: TGI [53]
> 200 µM: TGI [1] | TGI [2] | TGI [3] | TGI [4] | TGI [5] | TGI [57] | TGI [6] | TGI [7] | TGI [8] | TGI [9] | TGI [10] | TGI [11] | TGI [12] | TGI [13] | TGI [14] | TGI [15] | TGI [16] | TGI [17] | TGI [18] | TGI [19] | TGI [20] | TGI [21] | TGI [22] | TGI [23] | TGI [25] | TGI [26] | TGI [27] | TGI [28] | TGI [58] | TGI [29] | TGI [59] | TGI [30] | TGI [31] | TGI [33] | TGI [34] | TGI [35] | TGI [36] | TGI [37] | TGI [38] | TGI [39] | TGI [42] | TGI [43] | TGI [44] | TGI [45] | TGI [47] | TGI [48] | TGI [50] | TGI [51] | TGI [54] | TGI [55] | TGI [56]
123 µM: TGI [49]

C=CCc1cccc2cc(C(=O)NC3CCCCC3)c(=N)oc12
39 µM: TGI [9]
39.1 µM: TGI [48]
34.9 µM: TGI [5]
52.8 µM: TGI [39]
47.3 µM: TGI [23]
63.1 µM: TGI [59]
> 100 µM: TGI [2] | TGI [4] | TGI [11] | TGI [14] | TGI [15] | TGI [18] | TGI [19] | TGI [21] | TGI [24] | TGI [25] | TGI [26] | TGI [27] | TGI [30] | TGI [41] | TGI [42] | TGI [43] | TGI [49] | TGI [53] | TGI [54]
31.4 µM: TGI [3]
51.8 µM: TGI [51]
72.8 µM: TGI [35]
52.5 µM: TGI [12]
57.7 µM: TGI [37]
37.9 µM: TGI [22]
28.6 µM: TGI [10]
31.2 µM: TGI [1] | TGI [6] | TGI [33]
33 µM: TGI [47]
28.3 µM: TGI [20]
41.2 µM: TGI [16] | TGI [38]
78 µM: TGI [13]
77.5 µM: TGI [44]
33.5 µM: TGI [8]
52 µM: TGI [7]
29.8 µM: TGI [29]
27.4 µM: TGI [34]
66.2 µM: TGI [57]
35.9 µM: TGI [58] | TGI [50]
37.7 µM: TGI [56]
35 µM: TGI [46] | TGI [55]
44.9 µM: TGI [52]
34 µM: TGI [28]
16.1 µM: TGI [36]
57.8 µM: TGI [17]
